Experimental findings from US8629093B2, “Detergent composition comprising mixture of chelants” (The Procter & Gamble Company, priority 2010, dated 2014) are described below.

SMILES strings stand for the structures.

A short description of data set [1]: Product stability on storage, assessed visually. The format is physicochemical. Here is the method: Products (I through III) were prepared by combining Composition C and the 3 different chelant combinations. The products (75 g) were stored for 4 weeks at 4° C., 20° C. and 35° C. in a Glass Jar (100 mL contenance). The product stability was then assessed visually. If there is a visual precipitate or a product phase split, the stability is considered Fail. Stability is considered Pass if there is no signs of changes during the storage period.

Data set [2] is described as follows: Stain removal on wine stains (MiniWasher, image analysis). The settings on record: wash 32.2° C., 6 gpg hardness, 12 minutes. Here is the method: (§1) The performance of the chelants were measured on wine and tea. Wine and tea stains were applied to cotton and obtained from EMC (US). Stains and ballast load consisting of 0.5 kg of T-shirt was added to a MiniWasher representing a medium US wash conditions. The wash water was set at 32.2° C.±1° C. and 6 gpg (1 mmol/L) hardness and the rinse water was set at 15.5° C.±1° C. The water volume was 15 liters and wash time 12 minutes.
(§2) The stains and the ballast were dried at the end of each cycle under high speed and high heat with cool down cycle. The results were then analyzed by image analysis which is a method that enables to calculate the amount of stain that is removed. Stains are imaged before washing and after washing. The imaging calculates the amount of stain removal index (SRI). SRI of 100 means complete removal and SRI of zero is no removal.
(§3) The Laundry Image Analysis system (Merlin image analysis system) measures stain removal on technical stain swatches. The system utilizes a video camera to acquire color images of swatches. An image of the swatch is taken before and after it is washed. The acquired image is then analyzed by computer software (Global R&D computing). The software compares the unwashed stain to the washed stain, as well as the unwashed fabric to the washed fabric and produces five figures of merit which describe stain removal. The data are then analyzed statistically to determine statistically significant differences between the detergent performances.
(§4) The stain removal index uses the initial fabric as the reference against which to measure color differences between unwashed and washed stains. A higher value indicates a better cleaning and stain removal thus a better detergent. The standard deviation is 1.

The nature of data set [3]: Cleaning efficacy of compact liquid detergent composition. The settings on record: composition comprising 0.7% of Na-DTPA.
Data set [4] is described as follows: Stain removal on tea stains (MiniWasher, image analysis). The following applies: wash 32.2° C., 6 gpg hardness, 12 minutes. Here is the method:
as §1, §2, §3, §4

The mark [5] stands for this setting: chelant 1 ppm, SRI 100 = complete removal, standard deviation 1.

As to `O=C([O-])CN(CCN(CC(=O)[O-])CC(=O)[O-])CCN(CC(=O)[O-])CC(=O)[O-].[Na+].[Na+].[Na+].[Na+].[Na+]` [Na-DTPA, sodium salt of diethylene triamine pentaacetate], the entries for the “Stability of compact liquid detergent composition” value in data set [1] (composition comprising 0.7% of Na-DTPA) and in data set [1] (quantity of Na-DTPA increased to the effective level) were “stable” and “does not meet the stability requirements”, respectively. For the same compound, the entries for the “Stain Removal Index Wine” value in data set [2] (setting [5]), in data set [2] (chelant 2 ppm) and in data set [2] (chelant 3 ppm) were 55.2, 55.8 and 56.4, respectively. For the same compound, in data set [3], the Cleaning efficacy entry is “does not provide desired cleaning efficacy”. The results for the “Stain Removal Index Tea” value in data set [4] (setting [5]), in data set [4] (chelant 2 ppm) and in data set [4] (chelant 3 ppm) were 27.6, 29.0 and 27.1, respectively.

For `O=C([O-])CC(NCCNC(CC(=O)O)C(=O)[O-])C(=O)[O-].[Na+].[Na+].[Na+]` (stereo not drawn) [Na-EDDS, sodium salt of Ethylenediamine-N,N′-disuccinic acid], the figures for the “Stain Removal Index Wine” value in data set [2] (setting [5]), in data set [2] (chelant 2 ppm) and in data set [2] (chelant 3 ppm) were 58.3, 59.0 and 56.8, respectively. Moreover, the entries for the “Stain Removal Index Tea” value in data set [4] (setting [5]), in data set [4] (chelant 2 ppm) and in data set [4] (chelant 3 ppm) were 28.2, 29.3 and 26.1, respectively.
